The values below come from patent US10245262B2, “Immunological reagents and uses therefor” (THE UNIVERSITY OF QUEENSLAND, priority 2014, dated 2019).

Data set [1] concerns MR1. The experiment in a line: Crystal structure of MAIT TCR-MR1-Ag complexes. The format is binding, human. The protocol:
Crystals of the soluble MAIT TCR-MR1-Ag complexes were obtained using the hanging drop vapour diffusion method. The MR1-2M-5-OP-RU, MR1-2M-5-OE-RU, MR1, MR1-K43A-2M-5-OP-RU and MAIT TCR were concentrated to 4 mg/ml, mixed in a 1:1 molar ratio, then […] of a precipitant solution consisting 0.1 M bis-tris propane pH 6.3, 0.2 M sodium acetate and varying concentrations of PEG 3350 between 8-14% w/v. Crystals were observed after incubation at 20° C. for 24 hours in dark conditions and cryoprotected prior to diffraction experiments by soaking in the crystallisation condition modified with between 10-15% v/v glycerol before cooling to 100K. Diffraction images were collected at the Australian Synchrotron MX2 beamline diffracting in a C2 spacegroup to 2.50 Å, 2.10 Å and 2.20 Å for the MR1-2M-5-OP-RU, MR1-2M-5-OE-RU, and MR1-K43A-2M-5-OP-RU complexes with the MAIT TCR respectively. The data were processed using Mosflm version 7.0.9 and scaled using AIMLESS or SCALA (MR1-K43A-2M-5-OP-RU only) from the CCP4 Suite. The phase problem was solved by molecular replacement using PHASER (McCoy A. J. (2007)), using MR1 ternary complex (PDB code 4L4T) (Patel O. et al (2013)) with CDR loops and ligands removed and using the Rfree reflection set from the model. […]

For the next data set, the system named is MAIT cells. The experiment in a line: MAIT cell accumulation in lungs after intranasal S. Typhimurium infection. The format is in vivo, mice. The note with it: with BR509ΔribDH (10^7) i.n.; 200 μl of 1.52 μM i.v. at d1, d3, d5; day 7 post infection.
For data set [2] the following is noted: for half-life: buffer. The procedure: FIG. 7 is a graph showing stability of 5-OP-RU (a) Reaction between 5-A-RU (0.5 mM) and methylglyoxal (3 eq) at pH 6.8, 37° C. in MilliQ water. RL-6-Me represents 6-methyl-8-D-ribityllumazine. (b) Stability of purified 5-OP-RU (65 μM) at pH 6.8 and 37° C. […] (c) Stability of purified 5-OP-RU (65 μM) at variable pH in aqueous TBS buffer (10 mM Tris, 150 mM NaCl, pH 8.0), MilliQ water (pH 6.8), or ammonium acetate buffer (20 mM, pH 5.4) at 15° C.
The purified 5-OP-RU was dissolved in aqueous TBS buffer (10 mM Tris, 150 mM NaCl, pH 8.0), MilliQ water (pH 6.8), or aqueous ammonium acetate buffer (20 mM, pH 5.4). The consumption of 5-OP-RU was immediately monitored by LCMS. The initial concentration was quantified by comparing to a standard solution of known concentration.

Another data set relates to C1R.MR1 cells. Nature of the data set: Detection of MR1 expression on C1R.MR1 cells (mAb 26.5 staining). The format is cell-based. The note with it: for MR1 upregulation compared to 5-A-RU added by itself: compound added with 5-A-RU to C1R.MR1 cells. The protocol:
(§1) Jurkat cells transduced with genes encoding a MAIT TCR comprising the TRAV1-2-TRAJ33 invariant α chain, and a TRBV6-1 β chain, or SKW cells transduced with genes encoding the TRAV1-2-TRAJ33 invariant α chain with either w.t. Tyr95 or mutated Tyr95Ala or Tyr95Phe residues, paired with a TRBV6-1 β chain, were tested for activation by co-incubation with bacterial culture supernatant or compounds and C1R antigen presenting cells expressing MR1 (CIR.MR1, with Jurkat.MAIT cells), or C1R cells (SKW.MAIT cells) for 16 hr. Cells were subsequently stained with PE-Cy7-conjugated anti-CD3 (eBioscience), and APC-conjugated anti-CD69 (BD) antibodies as well as biotinylated anti-MR1 mAb 26.5 (Huang S. et al (2005)), followed by Streptavidin-PE (BD), before analysis by flow cytometry. Activation of Jurkat.MAIT or SKW.MAIT cells was measured by an increase in surface CD69 expression. MR1 expression was detected on gated C1R.MR1 cells in the same assay.

Another data set relates to SKW.MAIT cells. The experiment in a line: Activation of wild-type, Y95A or Y95F mutant SKW.MAIT cells with C1R cells. The format is cell-based. Particulars: compound added to C1R cells.
From the text: FIG. 4 is a graph showing MR1-Ag tetramers and MAIT activation. […] (c) EICs of m/z 315.09, or m/z 317.10. (d) (i) Activation assay and (ii) MR1 upregulation with 5-A-RU, methylglyoxal (MG), butane-2,3-dione (BD), glyoxal (G), or rRL-6-CH2OH. MFI of 26.5-PE antibody staining (e) (i) CD69 upregulation and (ii) MR1 upregulation with 5-A-RU, MG, BD, or G. MFI of 26.5-PE. (f) Activation of wild-type, Y95A, or Y95F mutant SKW.MAIT cells by 5-A-RU. Mean of triplicates with SEM. Experiments were performed at least twice (b, c, f) or 3 times (a, d, e).
as §1, with “Cells were subsequently stained with PE-Cy7-conjugated anti-CD3 (eBioscience), and APC-conjugated anti-CD69 (BD) antibodies as well as biotinylated anti-MR1 mAb 26.5 (Huang S. et al (2005)), followed by Streptavidin-PE (BD), before analysis by flow cytometry.” left out

A further data set deals with T1, human MR1 (Homo sapiens, UniProt Q95460, C283S).
T1 construct: Soluble human MR1 a.a; made in house
The experiment in a line: Refolding of MR1 and β2m with ligand. The format is binding.

The test system of another data set is Jurkat.MAIT cells. Nature of the data set: Activation of Jurkat.MAIT cells (CD69 upregulation) co-incubated with C1R.MR1 cells. The format is cell-based. The note with it: for Jurkat.MAIT activation compared to 5-A-RU added by itself: compound added with 5-A-RU to C1R.MR1 cells. The protocol: as §1
For data set [3], the system named is MR1. The note with it: cited from earlier work.
The mark [4] stands for this setting: compound added alone to C1R.MR1 cells.

Like-named read-outs stand apart in the source and are kept apart here.

T1 sequence (Q95460 with tags, fused parts or gaps C283S): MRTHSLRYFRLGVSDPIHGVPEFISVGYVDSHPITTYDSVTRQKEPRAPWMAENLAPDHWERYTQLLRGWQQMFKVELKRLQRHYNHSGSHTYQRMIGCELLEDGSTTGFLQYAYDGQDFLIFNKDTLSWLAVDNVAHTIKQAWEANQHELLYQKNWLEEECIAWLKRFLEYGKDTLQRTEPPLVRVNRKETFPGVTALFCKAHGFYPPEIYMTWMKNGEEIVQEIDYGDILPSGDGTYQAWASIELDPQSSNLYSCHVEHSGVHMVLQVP
T1 sequence (P61769 21-119 partner): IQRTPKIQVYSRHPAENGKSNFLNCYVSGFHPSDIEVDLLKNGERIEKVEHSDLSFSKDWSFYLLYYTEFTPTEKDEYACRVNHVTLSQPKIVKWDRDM

Take `CC(=O)C=Nc1c(NC[C@H](O)[C@H](O)[C@H](O)CO)[nH]c(=O)[nH]c1=O` [5-OP-RU, 5-(2-oxopropylideneamino)-6-D-ribitylaminouracil]: the “binding mode in the MR1 cleft” value with MR1 [1] is recorded as “formed a Schiff base with Lys43 of MR1”. The “accumulation of MAIT cells in lungs” value in the data set on MAIT cells is recorded as “accumulation is observed”. The half-life in data set [2] (pH 5.4) was 49 min; in data set [2] (pH 6.8) it was “around 2 h”.
Take `Nc1c(NC[C@H](O)[C@H](O)[C@H](O)CO)[nH]c(=O)[nH]c1=O` [5-A-RU, 5-amino-6-D-ribitylaminouracil]: the “MR1 cell surface upregulation” value in the data set on C1R.MR1 cells (setting [4]) was “MR1 cell surface upregulation”. The “recognition by SKW.MAIT cells with Tyr95α mutated to Ala95 or Phe95” value in the data set with SKW.MAIT cells was “ablated recognition”. Besides, on human MR1, the “MR1-ligand complex on refolding MR1 with the compound alone” value is given as “undetectable”. The “activation of Jurkat.MAIT cells” value with Jurkat.MAIT cells (setting [4]) is “activation of Jurkat.MAIT cells”.
Turning to `O=CC=O` [glyoxal], the “MR1 upregulation compared to 5-A-RU added by itself” value with C1R.MR1 cells was “further increase in MR1 upregulation”. Also, on human MR1, the “MR1-Ag complex on refolding MR1 in the presence of 5-A-RU and the compound” value (“MR1-Ag complex on refolding MR1” for short) is on record as “led to a correctly folded MR1-Ag complex”. Moreover, the “Jurkat.MAIT activation compared to 5-A-RU added by itself” value in the data set with Jurkat.MAIT cells is “increase in Jurkat.MAIT activation”.
As to `Cc1nc2c(=O)[nH]c(=O)nc-2n(C[C@H](O)[C@H](O)[C@H](O)CO)c1O` [RL-6-Me-7-OH, 7-hydroxy-6-methyl-8-D-ribityllumazine], in the data set on MR1 [3], the “binding mode in the MR1 cleft” value is given as “non-covalently bound within MR1”.
Turning to `O=CC=Nc1c(NC[C@H](O)[C@H](O)[C@H](O)CO)[nH]c(=O)[nH]c1=O` [5-OE-RU, 5-(2-oxoethylideneamino)-6-D-ribitylaminouracil], in the data set on MR1 [1], the “binding mode in the MR1 cleft” value was “formed a Schiff base with Lys43 of MR1”. Further, in data set [2], the “stability (in words)” value is on record as “relatively unstable”.
Take `Cc1cc2nc3c(=O)[nH]c(=O)nc-3n(C[C@H](O)[C@H](O)[C@H](O)CO)c2cc1C` [riboflavin]: in the data set with Jurkat.MAIT cells (L. lactis NZ9000 supernatant, 3 μg/ml riboflavin), the “effect of riboflavin added during culture of NZ9000 on MAIT cell activation by the supernatant” value is recorded as “inhibited MAIT cell activation”.
For the compound “reduced 6-hydroxymethyl-8-D-ribityllumazine [rRL-6-CH2OH]”, the “recognition by SKW.MAIT cells with Tyr95α mutated to Ala95 or Phe95” value with SKW.MAIT cells is reported as “ablated recognition”.
`CC(=O)C(C)=O` [butane-2,3-dione]: the “MR1 upregulation compared to 5-A-RU added by itself” value with C1R.MR1 cells was “not enhanced”. Also, the “MR1-Ag complex on refolding MR1” value on human MR1 is reported as “failed to yield any MR1-Ag complexes”. The “Jurkat.MAIT activation compared to 5-A-RU added by itself” value with Jurkat.MAIT cells is on record as “nor was there an increase in Jurkat.MAIT activation”.
`CC(=O)C=O` [methylglyoxal]: the “MR1 upregulation compared to 5-A-RU added by itself” value in the data set with C1R.MR1 cells is “further increase in MR1 upregulation”. The “MR1-Ag complex on refolding MR1” value at human MR1 is “led to a correctly folded MR1-Ag complex”. For the same compound, the “Jurkat.MAIT activation compared to 5-A-RU added by itself” value with Jurkat.MAIT cells was “increase in Jurkat.MAIT activation”.

A word on the half-life: it is how long it takes for the measured level to halve.
